Laboratory results from the NIST ThermoML archive (doi:10.1021/je900596d).
Numbers after ± are expanded uncertainties.

Conditions: 343.26 K, Fluid (supercritical or subcritical phases), Vibrating tube method

FC(F)=C(F)C(F)(F)F [hexafluoropropene]
Conditions | mass density [kg/m3]
32 kPa | 1.75 ± 0.03
33.6 kPa | 1.83 ± 0.03
36.6 kPa | 1.97 ± 0.03
38.2 kPa | 2.07 ± 0.03
39.9 kPa | 2.11 ± 0.03
43.2 kPa | 2.31 ± 0.03
45.9 kPa | 2.54 ± 0.03
50.6 kPa | 2.72 ± 0.03
55.4 kPa | 3 ± 0.03
59.9 kPa | 3.25 ± 0.03
63.1 kPa | 3.46 ± 0.03
66.1 kPa | 3.7 ± 0.03
70.8 kPa | 3.87 ± 0.03
72.4 kPa | 3.95 ± 0.03
74.2 kPa | 4.04 ± 0.03
77.2 kPa | 4.21 ± 0.03
80.1 kPa | 4.42 ± 0.03
81.8 kPa | 4.49 ± 0.03
83.4 kPa | 4.54 ± 0.03
86.6 kPa | 4.74 ± 0.03
89.9 kPa | 4.91 ± 0.03
94.8 kPa | 5.2 ± 0.03
97.7 kPa | 5.42 ± 0.03
104 kPa | 5.73 ± 0.03
110.1 kPa | 6.1 ± 0.03
116.3 kPa | 6.4 ± 0.03
122.7 kPa | 6.8 ± 0.03
129.3 kPa | 7.14 ± 0.03
135.5 kPa | 7.51 ± 0.03
141.7 kPa | 7.92 ± 0.04
148.2 kPa | 8.27 ± 0.04
154.4 kPa | 8.6 ± 0.04
160.9 kPa | 8.89 ± 0.04
170.1 kPa | 9.39 ± 0.04
176.8 kPa | 9.8 ± 0.04
183.2 kPa | 10.15 ± 0.04
189.6 kPa | 10.49 ± 0.04
200.5 kPa | 11.16 ± 0.04
213.3 kPa | 11.94 ± 0.04
225.8 kPa | 12.7 ± 0.04
237.9 kPa | 13.34 ± 0.04
250.5 kPa | 14.05 ± 0.04
262.7 kPa | 14.74 ± 0.04
274 kPa | 15.32 ± 0.04
286 kPa | 16.09 ± 0.04
298.3 kPa | 16.8 ± 0.04
311.2 kPa | 17.55 ± 0.04
323.1 kPa | 18.22 ± 0.04
335.5 kPa | 18.98 ± 0.04
347.7 kPa | 19.66 ± 0.04
360 kPa | 20.46 ± 0.04
372.1 kPa | 21.09 ± 0.04
384.1 kPa | 21.84 ± 0.05
396.5 kPa | 22.56 ± 0.05
408.2 kPa | 23.28 ± 0.05
420.5 kPa | 24.04 ± 0.05
431.3 kPa | 24.66 ± 0.05
443.3 kPa | 25.35 ± 0.05
455.1 kPa | 26 ± 0.05
466.9 kPa | 26.77 ± 0.05
478.8 kPa | 27.49 ± 0.05
490.9 kPa | 28.19 ± 0.05
507.3 kPa | 29.18 ± 0.05
521.6 kPa | 30.11 ± 0.05
535.5 kPa | 30.9 ± 0.05
548.6 kPa | 31.65 ± 0.06
561.3 kPa | 32.53 ± 0.06
